From ChEMBL document CHEMBL5154877, “Novel Sphingosine Kinase 1 Inhibitor Suppresses Growth of Solid Tumor and Inhibits the Lung Metastasis of Triple-Negative Breast Cancer” (J Med Chem, 2022)
Blank lines part the entries; values can stand above or below the compound they belong to. Active and inactive are the calls of the source. The rule behind the calls is not given here.

How the values were obtained:
MDA-MB-231 [1] = assay: Antimetastatic activity against human MDA-MB-231 cells […] assessed as downregulation of MMP-9 at 30 uM incubated for 2 to 12 hrs by western blot analysis; assay type: functional, cell-based; conditions: time 2-12 hrs
HT-29 [2] = assay: Induction of cell cycle arrest in human HT-29 cells assessed as accumulation at G0/G1 phase at 10 uM incubated for 24 hrs by PI staining based flow cytometry; assay type: functional
HT-29 [3] = assay: Induction of cell cycle arrest at G1 phase in human HT-29 cells assessed as increase in P21 expression at 30 uM incubated for 24 hrs by Western blot analysis; assay type: functional, cell-based
HT-29 [4] = assay: Induction of cell cycle arrest at G0/G1 phase in human HT-29 cells assessed as decrease in p-Rb expression at 10 to 30 uM incubated for 24 hrs by Western blot analysis; assay type: functional, cell-based; conditions: dose 10-30 µM
HT-29 [5] = assay: Induction of cell cycle arrest at G0/G1 phase in human HT-29 cells assessed as reduction in cyclinA expression at 10 to 30 uM incubated for 24 hrs by Western blot analysis; assay type: functional, cell-based; conditions: dose 10-30 µM
HT-29 [6] = assay: Induction of cell cycle arrest at G0/G1 phase in human HT-29 cells assessed as reduction in cyclinE1 expression at 10 to 30 uM incubated for 24 hrs by Western blot analysis; assay type: functional, cell-based; conditions: dose 10-30 µM
HT-29 [7] = assay: Induction of cell cycle arrest at G0/G1 phase in human HT-29 cells assessed as reduction in cyclinD1 expression at 10 to 30 uM incubated for 24 hrs by Western blot analysis; assay type: functional, cell-based; conditions: dose 10-30 µM
HT-29 [8] = assay: Induction of cell cycle arrest at G0/G1 phase in human HT-29 cells assessed as reduction in CDK6 expression at 10 to 30 uM incubated for 24 hrs by Western blot analysis; assay type: functional, cell-based; conditions: dose 10-30 µM
MDA-MB-231 [9] = assay: Induction of apoptosis in human MDA-MB-231 cells assessed as early apoptotic cells at 10 uM incubated for 48 hrs by Annexin V-FITC/PI staining based flow cytometry (reference value: 2.35 %); assay type: functional
MDA-MB-231 [10] = assay: Induction of apoptosis in human MDA-MB-231 cells assessed as viable cells at 10 uM incubated for 48 hrs by Annexin V-FITC/PI staining based flow cytometry (reference value: 94.3 %); assay type: functional; conditions: read-out: Activity
MDA-MB-231 [11] = assay: Induction of apoptosis in human MDA-MB-231 cells assessed as viable cells at 30 uM incubated for 48 hrs by Annexin V-FITC/PI staining based flow cytometry (reference value: 94.3 %); assay type: functional; conditions: read-out: Activity
MDA-MB-231 [12] = assay: Antimigratory activity against human MDA-MB-231 cells assessed as reduction in cell migration at 40 uM incubated for 8 hrs by crystal violet staining microscopy based transwell migration assay; assay type: functional
MDA-MB-231 [13] = assay: Antimigratory activity against human MDA-MB-231 cells assessed as inhibition of cell migration in human MDA-MB-231 cells at 40 uM incubated for 15 hrs by wound healing assay; assay type: functional, cell-based
[14] = Tmax in mouse at 20 mg/kg, po; assay type: ADME, organism-based; conditions: in vivo
[15] = Cmax in mouse at 20 mg/kg, po; assay type: ADME, organism-based; parameters: dose 20 mg/kg, route po; conditions: in vivo
[16] = AUClast in mouse at 20 mg/kg, po; assay type: ADME, organism-based; parameters: time 0 - last, dose 20 mg/kg, route po; conditions: in vivo
[17] = AUClast in mouse at 2 mg/kg, iv; assay type: ADME, organism-based; parameters: time 0 - last, dose 2 mg/kg, route iv; conditions: in vivo
[18] = Half life in mouse at 20 mg/kg, po; assay type: ADME, organism-based; conditions: in vivo
[19] = Half life in mouse at 2 mg/kg, iv; assay type: ADME, organism-based; conditions: in vivo
[20] = Clearance in mouse at 2 mg/kg, iv; assay type: ADME, organism-based; conditions: in vivo
[21] = Oral bioavailability in mouse at 20 mg/kg; assay type: ADME, organism-based; conditions: in vivo
HT-29 [22] = assay: Antitumor activity against human HT-29 cells xenografted in BALB/c mouse assessed as tumor growth inhibition at 50 mg/kg/day, ip for 3 weeks and measured every 3 days by caliper method; assay type: functional, organism-based
[23] = Toxicity in BALB/c mouse xenografted with human HT-29 cells assessed as change in body weight at 50 mg/kg/day, ip for 3 weeks and measured every 3 days; assay type: organism-based; conditions: in vivo, 504 h
[24] = Toxicity in BALB/c mouse xenografted with human MDA-MB-231 cells assessed as change in body weight at 50 mg/kg/day, ip for 3 weeks and measured every 3 days; assay type: organism-based; conditions: in vivo, 504 h
[25] = Toxicity in BALB/c mouse xenografted with human MDA-MB-231 cells assessed as body weight change at 100 mg/kg, ip administrated for 28 days; assay type: organism-based; conditions: in vivo, 672 h, time 28 day
MDA-MB-231 [26] = assay: Antimetastatic activity against human MDA-MB-231 cells xenografted in BALB/c mouse assessed as decrease in plasma S1P levels at 100 mg/kg, ip for 28 days; assay type: functional, organism-based; conditions: time 28.0 day
MDA-MB-231 [27] = assay: Antimetastatic activity against human MDA-MB-231 cells […] assessed as inhibition of NF-kappaB p65 phosphorylation at 30 uM incubated for 2 to 12 hrs by Western blot analysis; assay type: functional, cell-based; conditions: time 2-12 hrs
MDA-MB-231 [28] = assay: Antimetastatic activity against human MDA-MB-231 cells […] assessed as inhibition of FSCN1 phosphorylation at 30 uM incubated for 2 to 12 hrs by western blot analysis; assay type: functional, cell-based; conditions: time 2-12 hrs
MDA-MB-231 [29] = assay: Antimetastatic activity against human MDA-MB-231 cells […] assessed as upregulation of phosphorylated beta-catenin at 30 uM incubated for 2 to 12 hrs by western blot analysis; assay type: functional, cell-based; conditions: time 2-12 hrs
MDA-MB-231 [30] = assay: Induction of apoptosis in human MDA-MB-231 cells assessed as necrotic cells at 10 uM incubated for 48 hrs by Annexin V-FITC/PI staining based flow cytometry (reference value: 1.42 %); assay type: functional
MDA-MB-231 [31] = assay: Induction of apoptosis in human MDA-MB-231 cells assessed as late apoptotic cells at 10 uM incubated for 48 hrs by Annexin V-FITC/PI staining based flow cytometry (reference value: 1.96 %); assay type: functional
[32] = Half life in mouse at 10 mg/kg, ip; assay type: ADME, organism-based; conditions: in vivo
MDA-MB-231 [33] = assay: Induction of apoptosis in human MDA-MB-231 cells assessed as early apoptotic cells at 30 uM incubated for 48 hrs by Annexin V-FITC/PI staining based flow cytometry (reference value: 2.35 %); assay type: functional
MDA-MB-231 [34] = assay: Induction of apoptosis in human MDA-MB-231 cells assessed as late apoptotic cells at 30 uM incubated for 48 hrs by Annexin V-FITC/PI staining based flow cytometry (reference value: 1.96 %); assay type: functional
MDA-MB-231 [35] = assay: Induction of apoptosis in human MDA-MB-231 cells assessed as necrotic cells at 30 uM incubated for 48 hrs by Annexin V-FITC/PI staining based flow cytometry (reference value: 1.42 %); assay type: functional
Sphingosine kinase 2 = molecular target: T1, Sphingosine kinase 2 (Homo sapiens, UniProt Q9NRA0)
T1 sequence (Q9NRA0 whole entry): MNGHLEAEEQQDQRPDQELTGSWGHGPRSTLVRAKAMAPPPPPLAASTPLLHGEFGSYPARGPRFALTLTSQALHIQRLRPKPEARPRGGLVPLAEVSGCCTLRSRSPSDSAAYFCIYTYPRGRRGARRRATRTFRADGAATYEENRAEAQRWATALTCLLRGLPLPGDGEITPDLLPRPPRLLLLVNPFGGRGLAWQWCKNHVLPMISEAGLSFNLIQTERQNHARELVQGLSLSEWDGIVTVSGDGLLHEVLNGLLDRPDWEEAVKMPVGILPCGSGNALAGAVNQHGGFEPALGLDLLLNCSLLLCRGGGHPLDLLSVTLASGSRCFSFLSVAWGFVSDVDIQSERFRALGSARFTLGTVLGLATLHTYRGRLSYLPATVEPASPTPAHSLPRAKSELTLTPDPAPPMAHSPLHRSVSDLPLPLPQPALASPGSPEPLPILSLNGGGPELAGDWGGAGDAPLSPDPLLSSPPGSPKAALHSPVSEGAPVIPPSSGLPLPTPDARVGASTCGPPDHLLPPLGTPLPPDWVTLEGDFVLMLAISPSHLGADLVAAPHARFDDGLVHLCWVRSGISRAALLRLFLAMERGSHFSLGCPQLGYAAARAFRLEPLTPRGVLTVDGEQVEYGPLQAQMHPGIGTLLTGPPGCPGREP

- Tmax [14]: 0.25 h
- Cmax [15]: 16.8 ng/mL
- AUC(0-t) [16]: 32.3 ng·h/mL
- AUC(0-t) [17]: 168 ng·h/mL
- half-life [18]: 4.3 h
- half-life [19]: 1.01 h
- clearance [20]: 207 mL/min/kg
- bioavailability [21]: 1.92%
- half-life [32]: 1.2 h
SMILES: Cc1cc(CS(=O)(=O)c2ccccc2)cc(OCc2ccc(CN3CCC[C@@H]3CO)cc2)c1
- Activity (MDA-MB-231 [1]): Active
- Activity (HT-29 [2]): Active
- Activity (HT-29 [3]): Active
- Activity (HT-29 [4]): Active
- Activity (HT-29 [5]): Active
- Activity (HT-29 [6]): Active
- Activity (HT-29 [7]): Active
- Activity (HT-29 [8]): Active
- Activity (MDA-MB-231 [9]): 4.89%
- viability at 10 µM (MDA-MB-231 [10]): 85.8%
- viability at 30 µM (MDA-MB-231 [11]): 65.4%
- Activity (MDA-MB-231 [12]): Active
- Activity (MDA-MB-231 [13]): Active
- Activity (HT-29 [22]): Active
- Activity [23]: Non-Toxic
- Activity [24]: Non-Toxic
- Activity [25]: Non-Toxic
- Activity (MDA-MB-231 [26]): Active
- Activity (MDA-MB-231 [27]): Active
- Activity (MDA-MB-231 [28]): Active
- Activity (MDA-MB-231 [29]): Active
- Activity (MDA-MB-231 [30]): 2.22%
- Activity (MDA-MB-231 [31]): 7.11%
- Activity (MDA-MB-231 [33]): 25.2%
- Activity (MDA-MB-231 [34]): 7.47%
- Activity (MDA-MB-231 [35]): 1.99%

- IC50 (Sphingosine kinase 2): > 10 µM
SMILES: O=S(=O)(Cc1cc(OCc2ccc(CN3CCC[C@@H]3CO)cc2)cc(C(F)(F)F)c1)c1ccccc1
